The target in series [1] is T1, human α4β2 neuronal nAChR expressed in tsA201 cells (Homo sapiens, UniProt P17787+P43681).
T1 construct: expressed in transfected cells
Kind of series: Activation of human α4β2 neuronal nAChR, membrane depolarization FlexStation assay. Type of series: cell-based. The procedure: Figure 3 Activation of the human α4β2 neuronal nAChR expressed in tsA201 cells as measured by membrane depolarization using the FlexStation assay. Each point generally is the mean of four separate measurements. All responses were normalized with respect to the response of the cells to 0.5 μM epibatidine. Potency and efficacy estimates from these curves are found in Table 1.
TsA201 cells expressing human α4β2 were maintained in media consisting of Dulbecco’s Modified Eagle medium supplemented with 10% FBS, 100 units/mL penicillin and 100 μg/mL streptomycin, 2 mM L-glutamine, 0.5 mg/mL zeocin and 0.6 mg/mL geneticin [55]. Cells were grown in 75 cm^2 culture flasks, which were housed in a humidified incubator (Fisher Scientific, Atlanta, GA, USA at 37 °C in an atmosphere of 5% CO2. They were grown to around 80–90% confluence after harvesting with 0.25% trypsin and being split weekly at a subcultivation ratio of between 1:6 and 1:10.
(§1) Our experimental protocol was based on the initial study of Fitch et al.. Cells were seeded at a density of roughly 5 × 10^4 to 10^5 cells/well in 96-well flat-bottom black wall culture plates coated with 50 μg /ml poly-D-lysine hydrobromide (Sigma-Aldrich, 70–150 kDa) and grown overnight in 100 μL culture medium. A proprietary membrane potential dye obtained from Molecular Devices (San Diego, CA, USA) was prepared by dissolving one bottle of dye into 30 mL of Hanks Saline (pH = 7.4) containing 20 mM HEPES buffer. The cells were incubated with 100 μL of dye for 30 min at 37 °C prior to the robotically controlled concentration-response experiment. Serial dilutions of a compound for dose-response analysis were prepared in 96-well plates by evaporation of a methanolic stock solution and then reconstituted in the appropriate volume of Hanks saline. Fluid transfer and readings were performed by a FlexStation fluorimeter (Molecular Devices). Excitation and emission wavelengths were set to 530 nm and 565 nm with a cutoff of 550 nm. The first 17 s were used as a basal reading. At 18 s, a test compound was added to determine the EC50, followed by addition of 25 μL KCl (40 mM final concentration) at 160 s to serve as a fluorescence calibrant. Compounds that had no measurable depolarizing activity on the TsA201 cells were then tested for their ability to inhibit a 5 µM control ACh response. Data were fitted and graphed with Prism (GraphPad) to determine the EC50.

Series [2] has as its target T2, rat brain α4β2 nAChR (Rattus norvegicus, UniProt P09483+P12390).
T2 construct: from tissue; host or cells: whole rat brain membranes
Kind of series: [3H]-cytisine displacement binding, rat brain membranes.

The target in series [3] is T3, rat α7 nAChR (Rattus norvegicus, UniProt Q05941).
T3 construct: from tissue; host or cells: rat brain membranes
Kind of series: biochemical. Type of series: binding.

The target of series [4] is T4, human fetal (TE671 cells) skeletal muscle nAChR (Homo sapiens, UniProt P02708+P07510+Q07001).
T4 construct: endogenous in cells; host or cells: TE671 cells (human)
Kind of series: Activation of human fetal skeletal muscle nAChR (TE671 cells), membrane depolarization FlexStation assay. Type of series: cell-based. As to the method:
Figure 4 Activation of the human fetal (TE671 cells) skeletal muscle nAChR by the various stable anabaseine analogs measured by membrane depolarization using the FlexStation assay. Each point is generally the mean of four separate measurements. Responses were normalized to the 5 μM epibatidine response. Potency and efficacy estimates from these curves are found in Table 1.
as §1

The target in series [5] is T5, Torpedo electric organ membrane nAChRs (Tetronarce californica, UniProt P02710+P02714+P02718).
T5 construct: from tissue; host or cells: Torpedo electric organ membranes
Kind of series: biochemical. Format: binding.

A short description of series [6]: Ionization and ring-chain form distribution in water. Type of series: physicochemical. The source says:
Figure 2 Concentrations of the three major forms of anabaseine as a function of pH as determined by UV spectrophotometry. Left Ordinate: Concentration of each form expressed as % of the total anabaseine concentration. The red curve is the estimated cyclic imine concentration and the blue curve is the concentration of the cyclic iminium or the monocationic ammonium-ketone form of anabaseine (Assuming that KH = 1.0, the concentrations of these ionized forms are equal). Right ordinate: pH dependence of anabaseine inhibition of [^3H]-MCC binding to rat brain α4β2 receptors (Standard error bars included). Anabaseine inhibition (mean ± SEM) at each pH was the average of six replicate measurements.
Since the two monocationic forms show the same pH dependence and the same concentration when expressed as % of total anabaseine, another approach was required to assess their activities separately. We resorted to synthesizing and testing stable analogs that resemble the three anabaseine forms. […] The monocationic ammonium-ketone open-chain form analog selected was 5-methylamino-1-(3-pyridyl)-1-pentanone, MAPP, shown in Figure 1; it mainly ([…]) exists in their open-chain form in water at physiological pH; its cyclic imine or iminium form, N-methylanabaseine, is present in very small concentration (≤5%). […]

Series [7] deals with vertebrate brain and neuromuscular nAChRs. Kind of series: Overall comparison of agonist potency and binding affinity at vertebrate nAChRs. The settings on record: for activity relative to that predicted if the one form was solely active: several vertebrate brain and neuromuscular nAChRs. The text has this:
PTHP was the only anabaseine analog that approached anabaseine in potency and binding affinity.
The ability of a variety of 2-(aryl)-1,4,5,6-tetrahydropyrmidines to block neuromuscular nAChRs and produce teratogenic effects in chick embryos was reported long ago [45, 46]. Some of these compounds were reported to be nAChR agonists. The only study of PTHP on neurons was that of Upshall et al. on leech Retzius cells. Our results also indicate that PTHP is a potent agonist at neuronal as well as neuromuscular nAChRs. […] For PTHP to be equipotent with anabaseine, based on the I^+ form being the only active form, its EC50 would need to be ~1/3 of the EC50 of anabaseine, since the anabaseine (I^+) is ~1/3 of its total concentration.

In series [8] the target is T6, human GABAA receptor (UniProt P28472+P62813).
T6 construct: host or cells: WSS1 cells (HEK cell line)
Kind of series: GABAA receptor activation, membrane depolarization FlexStation assay (WSS1 cells). The settings on record: human GABAA receptor in HEK-derived WSS1 cells. Type of series: cell-based. As to the method:
Figure 5 Investigation of possible activation of the human GABAA receptor measured by membrane depolarization using a FlexStation assay. Each point is the mean of three separate measurements.
WSS1 cells from ATCC (Manassas, VA, USA) which express functional GABAA receptors were cultured as previously described by Wong et al.. The cells were grown to near confluence and then transferred to black well, clear bottom 96-well assay plates (Corning Incorporated, Corning, NY, USA) 12–18 h prior to the assay. Molecular Devices blue dye (Sunnyvale, CA, USA) was reconstituted as previously described. The WSS1 cells were allowed to come to room temperature, the culture medium was then aspirated, replaced with the blue dye and equilibrated for 30 min before being placed on a FlexStation 3 plate reader (Molecular Devices, Sunnyvale, CA, USA). […] Programmed readings and data analysis were performed as previously described.

Series [9] deals with T7, rat brain α4β2 nAChRs (Rattus norvegicus, UniProt P09483+P12390).
T7 construct: from tissue; host or cells: whole rat brain membranes
Kind of series: [3H]-methylcarbamylcholine binding to rat brain membranes, pH dependence. The source says:
Initially, we measured the pH-dependent binding of [^3H]-methylcarbamylcholine ([^3H]-MCC) to rat brain α4β2 nAChRs. In the absence of anabaseine we found a large (approximately 3-fold) enhancement of [^3H]-MCC binding as pH increased from 6.0 to 7.8. While interesting in its own regard, since MCC is permanently ionized, this marked pH dependence of [^3H]-MCC nAChR affinity complicated the analysis of the effect of pH on anabaseine binding, which was indirectly measured by [^3H]-MCC displacement. Anabaseine inhibition of [^3H]-MCC binding at each pH in Figure 2 is expressed with respect to the binding of [^3H]-MCC alone at the same pH, so as to compensate for [^3H]-MCC binding pH dependence. […]
Figure 2 Concentrations of the three major forms of anabaseine as a function of pH as determined by UV spectrophotometry. Left Ordinate: Concentration of each form expressed as % of the total anabaseine concentration. […]
[^3H]-[…] ([^3H]-MCC) binding assays with rat brain membranes were carried out as previously reported with a final concentration of 0.5 nM [^3H]-MCC [8, 54]; 2.8 µM atropine sulfate (Sigma-Aldrich) was added to inhibit binding to muscarinic receptors. […] Nonspecific binding was measured in the presence of 1 mM (S)-nicotine hydrogen tartrate (Sigma-Aldrich). […]

For series [10] the following is noted: cited from earlier work.
For series [11] the following is noted: no reference given; cited from earlier work.
Series [12] addresses T7, rat brain α4β2 nAChRs. The settings on record: read-out: Kd of radioligand with rat brain membranes; cited from earlier work.
Setting [13] is: displacement of [3H]-cytisine, rat brain membranes, read-out: Ki Neuronal nAChR Rat α4β.

Entries after “also recorded” stand apart in the source; their conditions may differ. Like-named read-outs stand apart in the source and are kept apart here.

T6 sequence (P62813 28-455): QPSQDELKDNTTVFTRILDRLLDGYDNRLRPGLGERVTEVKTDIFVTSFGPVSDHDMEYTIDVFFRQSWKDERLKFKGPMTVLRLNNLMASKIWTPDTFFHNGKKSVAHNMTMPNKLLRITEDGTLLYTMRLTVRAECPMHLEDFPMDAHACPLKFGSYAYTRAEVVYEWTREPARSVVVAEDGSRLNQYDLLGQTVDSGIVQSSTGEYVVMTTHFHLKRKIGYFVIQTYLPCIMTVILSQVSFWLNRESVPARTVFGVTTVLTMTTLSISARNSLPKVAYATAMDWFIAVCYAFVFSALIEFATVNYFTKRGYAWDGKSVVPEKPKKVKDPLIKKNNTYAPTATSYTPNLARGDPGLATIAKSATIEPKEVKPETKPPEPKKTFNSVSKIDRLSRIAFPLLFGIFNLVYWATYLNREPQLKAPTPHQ
T6 sequence (P28472 26-473): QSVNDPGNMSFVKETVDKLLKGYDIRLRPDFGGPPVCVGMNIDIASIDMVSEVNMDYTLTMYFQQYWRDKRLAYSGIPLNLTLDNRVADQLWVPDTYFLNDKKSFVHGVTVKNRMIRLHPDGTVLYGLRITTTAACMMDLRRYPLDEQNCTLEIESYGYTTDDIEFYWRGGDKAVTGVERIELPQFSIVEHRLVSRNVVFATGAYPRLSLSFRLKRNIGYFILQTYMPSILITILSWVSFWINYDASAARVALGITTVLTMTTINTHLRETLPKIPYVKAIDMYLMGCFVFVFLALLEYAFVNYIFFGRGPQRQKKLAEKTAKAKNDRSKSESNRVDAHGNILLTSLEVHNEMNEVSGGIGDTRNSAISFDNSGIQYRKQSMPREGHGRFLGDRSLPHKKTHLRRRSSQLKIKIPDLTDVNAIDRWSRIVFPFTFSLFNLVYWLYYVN
T6 sequence (P18508 39-466 partner): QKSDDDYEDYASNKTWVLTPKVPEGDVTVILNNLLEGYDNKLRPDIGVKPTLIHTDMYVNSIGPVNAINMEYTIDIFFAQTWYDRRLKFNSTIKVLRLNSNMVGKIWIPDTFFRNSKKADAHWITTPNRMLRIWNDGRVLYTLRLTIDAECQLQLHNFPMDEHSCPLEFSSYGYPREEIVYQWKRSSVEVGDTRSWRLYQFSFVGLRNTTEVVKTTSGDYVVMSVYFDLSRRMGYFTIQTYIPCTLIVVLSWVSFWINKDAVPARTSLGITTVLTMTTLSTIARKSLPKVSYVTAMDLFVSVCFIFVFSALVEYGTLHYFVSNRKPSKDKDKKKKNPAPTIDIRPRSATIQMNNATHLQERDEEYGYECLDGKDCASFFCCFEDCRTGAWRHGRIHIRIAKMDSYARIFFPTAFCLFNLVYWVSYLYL
T3 sequence (Q05941 23-502): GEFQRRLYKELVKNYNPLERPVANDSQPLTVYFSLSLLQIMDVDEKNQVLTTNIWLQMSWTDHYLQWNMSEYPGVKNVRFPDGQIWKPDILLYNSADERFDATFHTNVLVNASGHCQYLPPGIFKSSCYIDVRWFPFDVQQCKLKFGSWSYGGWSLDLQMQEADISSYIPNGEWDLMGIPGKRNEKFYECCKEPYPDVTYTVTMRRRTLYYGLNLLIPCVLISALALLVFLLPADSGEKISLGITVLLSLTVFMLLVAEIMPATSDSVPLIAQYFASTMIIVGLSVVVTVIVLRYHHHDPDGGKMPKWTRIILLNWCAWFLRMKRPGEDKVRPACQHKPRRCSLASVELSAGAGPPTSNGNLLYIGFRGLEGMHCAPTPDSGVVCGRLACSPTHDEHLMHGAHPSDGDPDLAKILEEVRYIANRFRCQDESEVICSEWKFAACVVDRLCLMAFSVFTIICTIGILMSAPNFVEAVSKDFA
T7 sequence (P09483 31-630): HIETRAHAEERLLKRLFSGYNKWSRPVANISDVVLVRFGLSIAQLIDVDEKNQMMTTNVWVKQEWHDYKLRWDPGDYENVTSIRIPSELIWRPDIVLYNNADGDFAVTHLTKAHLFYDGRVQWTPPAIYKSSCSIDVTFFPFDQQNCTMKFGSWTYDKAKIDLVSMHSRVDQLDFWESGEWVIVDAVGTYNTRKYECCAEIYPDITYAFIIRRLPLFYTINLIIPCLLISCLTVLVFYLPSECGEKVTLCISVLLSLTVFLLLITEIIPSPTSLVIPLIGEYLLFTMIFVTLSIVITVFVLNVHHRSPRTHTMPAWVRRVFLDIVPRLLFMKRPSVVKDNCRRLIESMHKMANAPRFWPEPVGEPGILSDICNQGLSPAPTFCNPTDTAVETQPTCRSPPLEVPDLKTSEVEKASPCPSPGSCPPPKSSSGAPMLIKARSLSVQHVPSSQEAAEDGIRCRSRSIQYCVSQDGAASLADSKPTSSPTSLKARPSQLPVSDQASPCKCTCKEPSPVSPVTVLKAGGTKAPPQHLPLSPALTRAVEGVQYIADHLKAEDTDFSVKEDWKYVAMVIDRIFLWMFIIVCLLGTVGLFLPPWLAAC
T7 sequence (P12390 25-500): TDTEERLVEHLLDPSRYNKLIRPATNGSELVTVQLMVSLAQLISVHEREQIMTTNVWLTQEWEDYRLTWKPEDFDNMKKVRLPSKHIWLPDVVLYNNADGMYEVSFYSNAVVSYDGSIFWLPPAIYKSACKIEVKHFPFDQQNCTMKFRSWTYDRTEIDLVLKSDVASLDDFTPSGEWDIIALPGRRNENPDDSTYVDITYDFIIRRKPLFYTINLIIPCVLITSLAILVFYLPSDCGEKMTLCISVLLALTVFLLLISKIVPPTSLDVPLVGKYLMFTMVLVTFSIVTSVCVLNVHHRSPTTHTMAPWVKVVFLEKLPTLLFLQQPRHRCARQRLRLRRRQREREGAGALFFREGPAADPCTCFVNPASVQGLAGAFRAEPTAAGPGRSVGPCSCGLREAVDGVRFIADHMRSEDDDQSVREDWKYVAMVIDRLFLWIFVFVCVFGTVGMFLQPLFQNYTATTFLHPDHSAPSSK
T2 sequence (P09483 31-630): as the sequence (P09483 31-630) above
T2 sequence (P12390 25-500): as the sequence (P12390 25-500) above
T5 sequence (P02710 25-461): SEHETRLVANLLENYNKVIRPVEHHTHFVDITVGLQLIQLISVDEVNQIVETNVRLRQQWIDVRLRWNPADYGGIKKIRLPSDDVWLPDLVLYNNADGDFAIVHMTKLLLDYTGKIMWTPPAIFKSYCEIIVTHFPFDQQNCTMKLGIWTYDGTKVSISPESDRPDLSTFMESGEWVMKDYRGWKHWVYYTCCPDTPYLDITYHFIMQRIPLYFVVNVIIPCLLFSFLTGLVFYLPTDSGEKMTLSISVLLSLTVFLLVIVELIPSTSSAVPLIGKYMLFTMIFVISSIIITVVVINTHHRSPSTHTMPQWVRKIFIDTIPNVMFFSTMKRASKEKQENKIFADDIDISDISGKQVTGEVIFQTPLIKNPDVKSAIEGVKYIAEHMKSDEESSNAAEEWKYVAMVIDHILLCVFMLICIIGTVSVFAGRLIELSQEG
T5 sequence (P02714 18-506): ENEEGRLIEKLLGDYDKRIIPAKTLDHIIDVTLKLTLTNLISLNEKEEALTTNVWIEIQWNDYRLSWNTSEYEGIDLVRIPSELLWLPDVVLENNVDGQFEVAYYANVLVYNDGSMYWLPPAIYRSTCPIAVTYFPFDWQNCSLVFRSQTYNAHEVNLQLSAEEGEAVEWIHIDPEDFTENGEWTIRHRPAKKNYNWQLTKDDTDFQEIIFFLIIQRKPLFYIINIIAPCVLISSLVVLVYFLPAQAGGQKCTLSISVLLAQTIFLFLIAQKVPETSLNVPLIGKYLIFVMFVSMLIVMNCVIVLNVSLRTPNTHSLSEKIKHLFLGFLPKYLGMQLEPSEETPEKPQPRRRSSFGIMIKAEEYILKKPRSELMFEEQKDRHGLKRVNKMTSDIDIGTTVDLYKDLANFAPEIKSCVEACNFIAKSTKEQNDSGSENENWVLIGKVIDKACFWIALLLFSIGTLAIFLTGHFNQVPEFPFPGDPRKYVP
T5 sequence (P02712 25-493, further chain): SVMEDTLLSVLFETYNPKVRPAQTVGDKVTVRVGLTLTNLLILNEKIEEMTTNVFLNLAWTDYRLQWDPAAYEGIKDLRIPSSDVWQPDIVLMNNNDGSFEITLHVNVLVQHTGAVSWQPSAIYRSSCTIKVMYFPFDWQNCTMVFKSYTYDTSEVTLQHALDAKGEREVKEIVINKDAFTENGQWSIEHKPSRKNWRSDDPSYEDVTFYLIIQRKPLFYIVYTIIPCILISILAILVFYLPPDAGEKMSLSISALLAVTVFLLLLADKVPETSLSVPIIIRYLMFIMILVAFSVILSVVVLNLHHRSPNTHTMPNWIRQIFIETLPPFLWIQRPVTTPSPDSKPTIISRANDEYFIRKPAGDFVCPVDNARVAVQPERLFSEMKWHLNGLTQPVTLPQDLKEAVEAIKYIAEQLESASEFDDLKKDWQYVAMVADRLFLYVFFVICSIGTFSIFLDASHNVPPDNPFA
T5 sequence (P02718 22-522): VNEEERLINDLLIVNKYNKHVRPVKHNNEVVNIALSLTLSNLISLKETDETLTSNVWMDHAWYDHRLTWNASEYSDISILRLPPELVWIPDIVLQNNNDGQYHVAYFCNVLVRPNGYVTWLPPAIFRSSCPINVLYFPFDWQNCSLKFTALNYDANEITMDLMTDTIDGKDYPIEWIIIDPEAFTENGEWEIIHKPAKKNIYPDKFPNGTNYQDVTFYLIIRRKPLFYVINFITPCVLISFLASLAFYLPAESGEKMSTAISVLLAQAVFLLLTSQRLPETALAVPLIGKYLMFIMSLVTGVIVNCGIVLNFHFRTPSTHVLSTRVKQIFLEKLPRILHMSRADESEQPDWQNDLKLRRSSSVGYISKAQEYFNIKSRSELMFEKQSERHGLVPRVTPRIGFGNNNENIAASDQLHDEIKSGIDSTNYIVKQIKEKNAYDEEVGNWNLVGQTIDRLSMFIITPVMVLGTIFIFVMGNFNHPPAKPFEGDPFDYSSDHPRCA

By EC50 is commonly meant the concentration that produces a half-maximal response. For orientation: Ki means a measure of affinity in units of concentration, obtained from inhibition or displacement. The term IC50 denotes the midpoint of a concentration-inhibition curve. For `c1ccc(-c2cccnc2)nc1` [2,3′-Bipyridyl, 2,3′-bipyridyl], the 50% effective concentration (EC50) was over 1000 µM in series [1] and 660 ± 60 µM in series [4]. Also, the Ki in series [2] (setting [13]) is over 50 µM; in series [3] it was over 2300 µM. In addition, the 50% inhibitory concentration (IC50) in series [5] was found to be 343 ± 48 µM. In addition, in [6] (pH 7.4), the “fraction of molecules unionized” value was over 99.9%. Moreover, the “activity relative to that predicted if the one form was solely active” value in series [7] is at most 1%.
Turning to `c1cncc(C2=NCCCC2)c1` [Anabaseine, anabaseine, reference compound], the EC50 came out at 2.85 ± 1 µM in series [1] (tsA201 cells, membrane depolarization, normalized to 0.5 μM epibatidine response, read-out: EC50 Neuronal nAChR Human α4β2) and 1.2 µM in series [4] (TE671 cells, membrane depolarization, normalized to 5 μM epibatidine response, read-out: EC50 Neuromuscular nAChR Human TE671). Moreover, the Ki was 0.096 ± 0.01 µM in series [2] and 1.87 ± 0.1 µM in [3] (read-out: Ki Neuronal nAChR Rat α7). Moreover, the IC50 in [5] (read-out: IC50 Neuromuscular nAChR Torpedo Electric Organ) amounted to 0.29 ± 0.18 µM. Further, the “GABAA receptor agonist activity” value in series [8] is reported as “not GABAA agonists; also recorded: no activity was detected”. Further, in series [9] (fixed anabaseine concentration, pH 5.8 to 7.8, relative to [3H]-MCC alone at the same pH), the “pH dependence of inhibition (displacement) of [3H]-MCC binding” value is listed as “did decrease with increased pH”. For the same compound, the “cyclic iminium (I+) form as fraction of total concentration” value in [10] (pH 7.4) is ~ 1/3.
For the compound `CNCCCCC(=O)c1cccnc1` [MAPP, 5-methylamino-1-(3-pyridyl)-1-pentanone], the concentration giving a half-maximal response (EC50) was over 2000 µM in series [1] and over 1000 µM in [4]. Besides, the results for the inhibition constant Ki in series [2] (setting [13]) and in series [3] were 10 µM and over 2000 µM, respectively. This compound had a half-inhibitory concentration (IC50) in series [5] of over 500 µM. In addition, the “activity relative to that predicted if the one form was solely active” value in series [7] was at most 1%. The “concentration of cyclic imine or iminium form (N-methylanabaseine)” value in [10] (in water at physiological pH) was at most 5%.
For the compound `Cl.c1cncc(C2=NCCCN2)c1` [PTHP, 2-(3-pyridyl)-1,4,5,6-tetrahydropyrimidine hydrochloride], the results for the concentration giving a half-maximal response (EC50) in series [1] and in series [4] were 3.64 ± 1.2 µM and 1.7 ± 0.3 µM, respectively. Besides, the Ki is 0.38 ± 0.07 µM in series [2] (setting [13]) and 1.54 ± 0.76 µM in series [3]. In series [5], the IC50 came out at 0.47 ± 0.01 µM. Moreover, the fraction ionized in [6] (pH 7.4, predicted) is given as over 99%. Further, the “potency relative to that predicted for the anabaseine cyclic iminium form” value in series [7] (from Figure 3, Figure 4 and Table 1) is given as “approximately 30%”. In addition, the “pKa of amidinium group” value in series [11] is listed as over 10.
One may read the Kd as the free concentration of one partner at which half of the binding sites on the other are occupied at equilibrium, for simple one-to-one binding. Regarding `CNC(=O)OCC[N+](C)(C)C` [[^3H]-MCC, [^3H]-methylcarbamylcholine], the equilibrium dissociation constant (Kd) in series [12] is 0.011 µM.
Take `[3H]CNC(=O)OCC[N+](C)(C)C` [[^3H]-MCC, [^3H]-methylcarbamylcholine]: the “enhancement of binding with increasing pH” value in series [9] (pH increased from 6.0 to 7.8, absence of anabaseine) is given as “approximately 3 fold”.
As to `c1cncc(C2=NCCC2)c1` [myosmine], the “GABAA receptor agonist activity” value in series [8] was “not GABAA agonists; also recorded: no activity was detected”.

(Values after paper PMC6891768 (Marine Drugs, 2019).)
